Blank lines part the entries; values can stand above or below the compound they belong to.
What was measured:
thermostable luciferase = test: Stabilization of luminescent signal using luciferase inhibitors; details: 100 micromolar inhibitor; CYP1A1 with Luciferin chloroethyl ether; read for 1 hour
Protocol: FIG. 17. Stabilization of luminescent signals using luciferase inhibitors. […] Luminescence was read immediately and at subsequent 5 minute intervals for 1 hour.
(AMBT) or 2-(4-aminophenyl)-6-methylbenzothiazole (APMBT), were evaluated to determine their effect on stabilizing a luminescent signal.
Luminescence was read immediately and at subsequent 5 minute intervals for 1 hour.

CYP1A1 [1] = target: T1, CYP1A1 (Homo sapiens, UniProt P04798); test: Two-step luminescent CYP450 inhibition assay; assay type: biochemical; set-up: purchased GenTest (Woburn, Mass.); host or cells: Sf9 insect cells; details: substrate Luc CEE; 50 microliter reaction, 1 picomole CYP450; read-out: IC50 of known CYP450 substrate against CYP1A1/Luc CEE
T1 sequence (P04798 1-512): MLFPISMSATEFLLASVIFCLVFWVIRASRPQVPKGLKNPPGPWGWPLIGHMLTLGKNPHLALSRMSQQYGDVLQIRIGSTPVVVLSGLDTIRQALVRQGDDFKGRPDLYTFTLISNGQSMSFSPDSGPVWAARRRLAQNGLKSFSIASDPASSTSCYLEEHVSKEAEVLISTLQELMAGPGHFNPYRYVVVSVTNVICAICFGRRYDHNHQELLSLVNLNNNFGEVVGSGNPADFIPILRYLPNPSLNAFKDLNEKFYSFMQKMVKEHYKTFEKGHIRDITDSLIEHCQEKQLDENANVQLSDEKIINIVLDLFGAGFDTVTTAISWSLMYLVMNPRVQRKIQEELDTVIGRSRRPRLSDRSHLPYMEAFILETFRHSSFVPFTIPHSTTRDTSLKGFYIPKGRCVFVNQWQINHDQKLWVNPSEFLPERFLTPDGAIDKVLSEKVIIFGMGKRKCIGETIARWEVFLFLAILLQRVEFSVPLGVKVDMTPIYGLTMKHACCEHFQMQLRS
Protocol: After an initial incubation period at 37° C.
Luciferin derivatives as substrates for luminescent CYP450 assays would be useful as probes for detecting other CYP450 substrates. Because two distinct substrates for the same CYP450 isoform will likely compete for the active site, it is possible to characterize known substrates and to identify novel substrates by observing their capacity to inhibit the luminescent reactions with luciferin derivatives. […] The drugs inhibited the reactions in a dose-dependent manner, thus verifying the expectation that CYP450 substrates can be detected by these luminescent assays (see table below). IC50s were calculated by non-linear regression analysis with the program GraphPad PRISM™ (San Diego, Calif.). The reactions were performed as described in Example 2 except the first step (CYP450 reaction) was in a 50 microliter reaction volume with 1 picomole of CYP450. In the second step a 50 microliter luciferase reaction was added to give final concentrations of 50 micrograms/mL recombinant, mutant of firefly luciferase from Photuris pennsylvanica from Promega (17), 200 micromolar ATP, 0.1% tergitol (v/v), 4.0 mM MgSO4 and 100 mM Tricine pH 8.4. FIGS. 11(a)-(c) illustrate the actual inhibition curves.

CYP1A2 = target: T2, CYP1A2 (Homo sapiens, UniProt P05177); test: Two-step CYP450/Renilla reaction, coelenterazine derivative evaluation; assay type: biochemical; details: 60 min at 37° C.
T2 sequence (P05177 1-516): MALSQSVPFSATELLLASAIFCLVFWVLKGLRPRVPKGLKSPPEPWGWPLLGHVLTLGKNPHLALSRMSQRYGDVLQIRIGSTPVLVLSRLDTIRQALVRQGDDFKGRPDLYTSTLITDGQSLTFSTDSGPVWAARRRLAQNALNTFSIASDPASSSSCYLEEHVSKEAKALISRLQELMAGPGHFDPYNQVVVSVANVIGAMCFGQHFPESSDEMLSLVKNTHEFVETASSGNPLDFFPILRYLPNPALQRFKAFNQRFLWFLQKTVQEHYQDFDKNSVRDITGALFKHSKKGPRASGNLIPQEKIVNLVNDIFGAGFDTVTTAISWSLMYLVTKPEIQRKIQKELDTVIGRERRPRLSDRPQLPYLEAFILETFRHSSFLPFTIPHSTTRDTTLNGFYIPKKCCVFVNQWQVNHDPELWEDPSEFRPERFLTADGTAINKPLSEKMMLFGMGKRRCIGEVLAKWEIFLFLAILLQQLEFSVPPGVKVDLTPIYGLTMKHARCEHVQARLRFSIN
Protocol: (§1) In this Example, P450 activity was determined using coelenterazine and coelenterazine derivatives, methoxy-coelenterazine HH and coelenterazine HH, in a two-step reaction system. In these assays, P450 acts on the coelenterazine or coelenterazine derivatives in one of two ways. […] An example of this type of coelenterazine derivative is methoxy-coelenterazine HH. […] In both types of assay it is possible to detect P450 activity either directly by a change in chemiluminescence or indirectly by a change in bioluminescence from a Renilla-type luciferase.
(§2) […]; 625 mM KCl; 0.125 mM EDTA pH 8.0; 0.25% Triton X-100; 0.125% Mazu; 1.25% Glycerol; 0.25 mg/mL gelatin to the P450 reactions. Renilla luciferase (1.2 ng/mL) (purchased from Chemicon) was added for detection of bioluminescence of P450 altered coelenterazine or coelenterazine derivatives.

CYP2E1 = target: T3, CYP2E1 (Homo sapiens, UniProt P05181); test: as above; assay type: biochemical; details: 60 min at 37° C.; 3 micromolar substrate
T3 construct: purchased GenTest (Woburn, Mass.); host or cells: Sf9 insect cells, baculovirus
T3 sequence (P05181 whole entry): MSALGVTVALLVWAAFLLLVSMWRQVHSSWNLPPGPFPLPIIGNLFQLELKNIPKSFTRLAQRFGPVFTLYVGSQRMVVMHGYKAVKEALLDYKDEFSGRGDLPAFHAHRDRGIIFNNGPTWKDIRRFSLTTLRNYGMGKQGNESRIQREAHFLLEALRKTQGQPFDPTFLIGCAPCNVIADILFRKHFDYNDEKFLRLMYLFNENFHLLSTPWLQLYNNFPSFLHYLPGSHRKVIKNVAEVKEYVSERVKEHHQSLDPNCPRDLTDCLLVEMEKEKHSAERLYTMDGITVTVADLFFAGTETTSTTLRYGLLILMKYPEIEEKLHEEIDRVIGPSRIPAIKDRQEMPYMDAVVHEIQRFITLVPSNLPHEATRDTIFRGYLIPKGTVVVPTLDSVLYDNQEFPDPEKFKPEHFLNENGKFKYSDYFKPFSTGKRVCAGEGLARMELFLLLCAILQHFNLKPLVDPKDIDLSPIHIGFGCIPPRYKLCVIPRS
Protocol: as §1, §2

CYP2B6 = target: T4, CYP2B6 (Homo sapiens, UniProt P20813); test: as above; assay type: biochemical; details: 60 min at 37° C.; 10 micromolar substrate
T4 construct: purchased GenTest (Woburn, Mass.); host or cells: Sf9 insect cells, baculovirus
T4 sequence (P20813 1-491): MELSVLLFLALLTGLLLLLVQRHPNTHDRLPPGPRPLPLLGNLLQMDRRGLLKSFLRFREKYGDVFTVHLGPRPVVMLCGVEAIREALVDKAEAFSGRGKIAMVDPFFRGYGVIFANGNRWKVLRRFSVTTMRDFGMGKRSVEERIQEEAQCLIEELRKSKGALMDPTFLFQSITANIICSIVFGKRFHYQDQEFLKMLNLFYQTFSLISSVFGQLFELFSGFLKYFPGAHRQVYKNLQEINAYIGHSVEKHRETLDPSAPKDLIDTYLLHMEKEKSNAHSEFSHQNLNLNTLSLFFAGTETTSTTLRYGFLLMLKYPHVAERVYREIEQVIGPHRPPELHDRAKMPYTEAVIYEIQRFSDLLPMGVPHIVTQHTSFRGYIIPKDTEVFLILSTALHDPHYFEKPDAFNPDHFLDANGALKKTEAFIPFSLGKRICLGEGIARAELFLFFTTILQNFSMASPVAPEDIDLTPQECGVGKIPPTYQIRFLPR
Protocol: as §1, §2

CYP2C19 = target: T5, CYP2C19 (Homo sapiens, UniProt P33261); test: as above; assay type: biochemical; details: 60 min at 37° C.; 10 micromolar substrate
T5 construct: purchased GenTest (Woburn, Mass.); host or cells: Sf9 insect cells, baculovirus
T5 sequence (P33261 whole entry): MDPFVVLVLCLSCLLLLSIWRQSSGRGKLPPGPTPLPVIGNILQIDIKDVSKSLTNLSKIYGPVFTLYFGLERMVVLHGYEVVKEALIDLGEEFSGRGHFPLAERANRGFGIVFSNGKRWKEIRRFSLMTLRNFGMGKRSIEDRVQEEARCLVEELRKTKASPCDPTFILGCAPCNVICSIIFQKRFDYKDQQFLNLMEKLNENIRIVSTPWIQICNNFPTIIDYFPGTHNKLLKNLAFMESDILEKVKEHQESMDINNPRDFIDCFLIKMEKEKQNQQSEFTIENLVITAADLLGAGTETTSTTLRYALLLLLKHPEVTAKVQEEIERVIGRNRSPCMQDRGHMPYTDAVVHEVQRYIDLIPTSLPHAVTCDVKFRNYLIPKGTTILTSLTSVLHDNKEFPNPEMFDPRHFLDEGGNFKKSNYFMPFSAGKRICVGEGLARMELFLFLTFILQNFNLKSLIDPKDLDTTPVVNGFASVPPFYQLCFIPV
Protocol: as §1, §2

CYP1A1 [2] = target: T1, CYP1A1; test: as above; assay type: biochemical; set-up: purchased GenTest (Woburn, Mass.); host or cells: baculovirus-infected insect cells; details: 60 min at 37° C.; 10 micromolar substrate
Protocol: as §1, §2

Compound: Cc1ccc2nc(-c3ccc(N)cc3)sc2c1 [APMBT, 2-(4-aminophenyl)-6-methylbenzothiazole]
- Effect on luminescent signal in a luminescent CYP450 assay (thermostable luciferase): stabilizes the luminescent signal

- IC50 (CYP1A1 [1]): 21 µM
Compound: CCOc1ccc(NC(C)=O)cc1 [Phenacetin, phenacetin]

- Change in chemiluminescence and bioluminescence after incubation with CYP1A2 (CYP1A2; 3 micromolar substrate): significant reduction
- Change in chemiluminescence and bioluminescence after incubation with CYP2E1 (CYP2E1): significant reduction
Compound: O=c1c(Cc2ccccc2)nc2c(Cc3ccccc3)[nH]c(-c3ccccc3)cn1-2 [coelenterazine HH, 2,8-Dibenzyl-6-phenyl-7H-imidazo[1,2-a]pyrazin-3-one]

- Increase in chemiluminescence and bioluminescence with CYP1A2 (+P450 RLU/-P450 RLU) (CYP1A2; 10 micromolar substrate): 2-5 ×
- Increase in chemiluminescence and bioluminescence with CYP2B6 (+P450 RLU/-P450 RLU) (CYP2B6): 2-5 ×
- Increase in chemiluminescence and bioluminescence with CYP2C19 (+P450 RLU/-P450 RLU) (CYP2C19): 2-5 ×
- Change in chemiluminescence and bioluminescence after incubation with CYP1A1 (CYP1A1 [2]): large increase
Compound: COc1c(Cc2ccccc2)nc2c(Cc3ccccc3)nc(-c3ccccc3)cn12 [methyl-coelenterazine HH, 2,8-Dibenzyl-3-methoxy-6-phenyl-imidazo[1,2-a]pyrazine]
